The source of these data is patent US20210338755A1, “AQUEOUS EXTRACT FROM CELLS OF FITZROYA CUPRESSOIDES (ALERCE) WITH ANTI- AGING AND SKIN REGENERATION PROPERTIES” (RUBISCO BIOTECHNOLOGY, priority 2018, published 2021).

The subject of this experiment is HaCaT cells. As to the kind of experiment: Scratch wound experiment with cell division inhibitor mitomycin C. The experiment is classed as cell-based. Particulars: 48 hours; 20 μmol/L mitomycin C before treatment with 0.125% v/v extract.

Excerpt: Evaluation of the effect of mitomycin C in wound healing repair. […] 20 μmol/L of Mitomycin C was applied before each treatment.
The application of mitomycin inhibits division of the HaCaT cells that, together with cell migration, are the two mechanisms involved in wound healing repair.

Take `CO[C@@]12[C@H](COC(N)=O)C3=C(C(=O)C(C)=C(N)C3=O)N1C[C@@H]1N[C@@H]12` [mitomycin C]: the “effect on wound closure induced by Alerce cell culture extract” value is recorded as “significantly inhibited the wound closure”.
